Values quoted from earlier work in patent US8372434B2, “Ophthalmic oil-in-water type emulsion with stable positive zeta potential” (Novagali Pharma SA, priority 2004, dated 2013).

Details: at 0.1% or 0.3% w/v

SMILES	safety for ocular administration
CCCCCCCC/C=C\CCCCCCCCN [oleylamine]	safe for ocular administration
CCCCCCCCCCCCCCCCCCN [stearylamine]	safe for ocular administration
